Test results published in US8173131B2, “Compositions and methods for modulating RSV infection and immunity” (PerkinElmer Health Sciences, Inc., priority 2000, dated 2012).
Read-outs that look alike come from different tables or passages of the source.

Key:
RSV = RSV plaque reduction assay on Vero cells (Example 1); format: cell-based, RSV/A2
Procedure: Dilutions of Fkn (R&D systems), SDF-1 α (R&D systems), G glycoprotein, heparin (Sigma), G glycoprotein peptides and anti-CX3CR1 antibody were made in serum-free Dulbecco's Modified Eagle's Media (DMEM; GIBCO) containing 1% BSA (Sigma) and preincubated with the Vero cells for 1 h at 37° C. 50 μg of anti-CX3CR1 antibody or heat-inactivated (56° C., 30 min) normal rabbit sera (control) were used in all experiments. […] Dilutions of RSV were made in serum-free DMEM (GIBCO) and added to pretreated Vero cells for 2 h at 37° C. Following virus infection, DMEM (GIBCO) containing 10% FBS (Hyclone, Logan, Utah) was added to the wells. Plaques were enumerated using immunostaining for F and G glycoproteins using biotinylated monoclonal antibodies 131-2A (anti-F glycoprotein) and 130-2G (anti-G glycoprotein) as described^45.
RSV plaque reduction following treatment with G glycoprotein, Fkn, G glycoprotein peptides, anti-CX3CR1 antibody, SDF-1-α and/or heparin as described in Methods. Percent inhibition was determined from the mean plaque forming units (pfu) of treated Vero cells over saline-treated Vero cells using a dilution of RSV that would produce 40-80 pfu. p-values were determined using unpaired two-tailed analysis where p<0.05 is significant. The concentration of G glycoprotein was estimated using a molecular weight of 90 kD.

[1] = tested on: G glycoprotein binding to 293-CX3CR1 cells; set-up: species or system human; settings: for percent staining of G glycoprotein on CX3CR1-293 cells in the presence of peptide: 10 nM G glycoprotein, 84% without peptide, FIG. 1
Procedure: All binding studies were done on ice and either G glycoprotein or human Fkn (R&D Diagnostics, Minneapolis, Minn.) were diluted between 1 nM-100 nM in PBS (GIBCO) containing 1% bovine serum albumin (Sigma) and incubated with the 293-CX3CR1 cells or 293 control cells for 30 min at 4° C. […] Without washing, 100 pM of either Fkn or G glycoprotein was added and incubated for 30 min at 4° C. The cells were washed, blocked with FcγRIII blocking antibody (HB197) for 30 min on ice, washed and stained as appropriate with either an anti-G glycoprotein monoclonal antibody cocktail (132-5B, 132-5G, 130-2G, 232-IF) or a biotinylated anti-G glycoprotein monoclonal antibody cocktail (130-2G, 131-2G) or anti-Fkn monoclonal antibody (51637.11; R&D Diagnostics). Concentrations of 1 μg of anti-G glycoprotein monoclonal antibody (131-2G)^34, rabbit anti-CX3CR1 sera^33, and anti-CX3CR1 monoclonal antibody containing 10 μg/ml heparin were used in all experiments. […] Staining was detected with absorbed FITC-goat anti-mouse (H & L chain) monoclonal antibody (PharMingen, San Diego, Calif.) or streptavidin-PE (PharMingen) using flow cytometry (FACScan, Becton-Dickinson, Mountain View, Calif.). A 76 amino acid ^125I-Fkn polypeptide comprising the […] (NEN, Boston, Mass.) was used in radioligand studies^33. As a control, the void volume following purified G glycoprotein passaged over an anti-G glycoprotein antibody (130-2G) affinity column was examined by flow cytometry for binding to either 293 or 293-CX3CR1 cells.
(§1) For peptide inhibition studies, a series of G glycoprotein peptides were identified in the amino acid sequence of the A2 strain of RSV (GENBANK, attachment protein locus 1912305, Table 4). The peptides were synthesized using a simultaneous, multiple solid-phase peptide synthesis method on a peptide synthesizer (Perkin-Elmer Applied Biosystems, Berkeley, Calif.), and tested for homogeneity by reverse-phase liquid chromatography and capillary electrophoresis (www.biotech.cdc.gov/protein/methods). Inhibition assays were performed as described for the binding studies above.
(§2) To determine if G glycoprotein bound 293-CX3CR1 cells via CX3CR1, the ability of four reagents (anti-CX3CR1 rabbit antiserum, anti-CX3CR1 monoclonal antibody (2A9-1), Fkn and a 76 amino acid 125-I-Fkn polypeptide containing the CX3C domain) that bind to CX3CR1 to block G glycoprotein binding to 293-CX3CR1 cells was examined. In addition, to determine if binding of G glycoprotein to 293-CX3CR1 cells was dependent upon the CX3C motif, G glycoprotein peptides with a single residue insertion (Δ+1) or deletion (Δ−1) in the CX3C motif and also peptides that lacked or included the CX3C motif (Table 4) were generated. This panel of peptides was analyzed for their ability to block G glycoprotein or Fkn binding to 293-CX3CR1 cells.
(§3) Inhibition of Fkn and G glycoprotein binding to 293-CX3CR1 cells by treatment with monoclonal antibodies to G glycoprotein or CX3CR1, or treatment with G glycoprotein, Fkn, or G glycoprotein peptides in the presence or absence of heparin as described in Methods. […] The concentration of G glycoprotein was estimated using a molecular weight of 90 kD.

[2] = biological target: T1, Fkn binding to 293-CX3CR1 cells (Homo sapiens, UniProt P49238); settings: no heparin
T1 construct: host or cells: HEK 293 cells stably transfected with CX3CR1
T1 sequence (P49238 whole entry): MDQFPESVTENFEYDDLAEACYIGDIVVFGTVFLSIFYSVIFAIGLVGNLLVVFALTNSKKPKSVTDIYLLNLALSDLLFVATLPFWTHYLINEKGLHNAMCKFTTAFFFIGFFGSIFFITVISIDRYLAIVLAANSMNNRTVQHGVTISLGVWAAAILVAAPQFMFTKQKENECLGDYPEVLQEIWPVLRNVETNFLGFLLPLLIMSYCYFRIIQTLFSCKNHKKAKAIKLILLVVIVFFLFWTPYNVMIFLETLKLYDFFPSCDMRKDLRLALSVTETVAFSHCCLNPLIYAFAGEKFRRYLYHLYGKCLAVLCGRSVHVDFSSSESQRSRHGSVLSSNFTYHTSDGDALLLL
Procedure: All binding studies were done on ice and either G glycoprotein or human Fkn (R&D Diagnostics, Minneapolis, Minn.) were diluted between 1 nM-100 nM in PBS (GIBCO) containing 1% bovine serum albumin (Sigma) and incubated with the 293-CX3CR1 cells or 293 control cells for 30 min at 4° C. […] For inhibition studies, 100 pM-1 μM human Fkn or G glycoprotein was preincubated with the cells for 30 min at 4° C. Without washing, 100 pM of either Fkn or G glycoprotein was added and incubated for 30 min at 4° C. The cells were washed, blocked with FcγRIII blocking antibody (HB197) for 30 min on ice, washed and stained as appropriate with either an anti-G glycoprotein monoclonal antibody cocktail (132-5B, 132-5G, 130-2G, 232-IF) or a biotinylated anti-G glycoprotein monoclonal antibody cocktail (130-2G, 131-2G) or anti-Fkn monoclonal antibody (51637.11; R&D Diagnostics). Concentrations of 1 μg of anti-G glycoprotein monoclonal antibody (131-2G)^34, rabbit anti-CX3CR1 sera^33, and anti-CX3CR1 monoclonal antibody containing 10 μg/ml heparin were used in all experiments. […] Staining was detected with absorbed FITC-goat anti-mouse (H & L chain) monoclonal antibody (PharMingen, San Diego, Calif.) or streptavidin-PE (PharMingen) using flow cytometry (FACScan, Becton-Dickinson, Mountain View, Calif.). A 76 amino acid ^125I-Fkn polypeptide comprising the […] (NEN, Boston, Mass.) was used in radioligand studies^33. As a control, the void volume following purified G glycoprotein passaged over an anti-G glycoprotein antibody (130-2G) affinity column was examined by flow cytometry for binding to either 293 or 293-CX3CR1 cells.
as §1, §2, §3

Question: With “Fkn: CX3C chemokine fractalkine (R&D), ligand of CX3CR1 [reference compound]” as the molecule, how does the “plaque inhibition (%)” value (RSV; 100 pM) read?
Answer: The value was 0%.

Question: And the “plaque inhibition (%)” value (RSV; 1 nM)?
Answer: The value was 31%.

Question: What about the “plaque inhibition (%)” value (RSV; 10 nM) of the same molecule?
Answer: Its value is 80%.

Question: And the “plaque inhibition (%)” value (RSV; heparin 5 μg/ml + Fkn 10 nM)?
Answer: The value was 97%.

Question: And the “Range of Inhibition (%) of G glycoprotein binding” value ([1]; heparin 5 μg/ml + Fractalkine 10 nM)?
Answer: Its value is 85-98%.

Question: What about the “Range of Inhibition (%) of G glycoprotein binding” value ([1]; inhibitor 100 pM, no heparin) of the same molecule?
Answer: The value was 2-5%.

Question: And the “Range of Inhibition (%) of G glycoprotein binding” value ([1]; inhibitor 10 nM, no heparin)?
Answer: Its value is 8-15%.

Question: And the “Range of Inhibition (%) of G glycoprotein binding” value ([1]; inhibitor 1 μM, no heparin)?
Answer: The value was 20-34%.

Question: Which results are given for NKKPGKKTTTKP [RT34]?
Answer: Range of Inhibition (%) of Fkn binding ([2]; inhibitor 1 μM): 6-14%; plaque inhibition (%) (RSV; 1 μM): 6%; Range of Inhibition (%) of G glycoprotein binding ([1]; inhibitor 1 μM, no heparin): 4-18%

Question: Which results are given for TCWACKRIPNK (TCWAIACKRIPNK) [Δ − 1]?
Answer: Range of Inhibition (%) of Fkn binding ([2]; inhibitor 1 μM): 0-4%; plaque inhibition (%) (RSV; 1 μM): 0%; percent staining of G glycoprotein on CX3CR1-293 cells in the presence of peptide [1]: 73%; Range of Inhibition (%) of G glycoprotein binding ([1]; inhibitor 1 μM, no heparin): 8-12%

Question: How did the “Range of Inhibition (%) of Fkn binding” value ([2]; inhibitor 1 μM) turn out when TCWAIACKRIPNK [Δ + 1] was run?
Answer: Its value is 0-8%.

Question: What about the “plaque inhibition (%)” value (RSV; 1 μM) of the same molecule?
Answer: The value was 30%.

Question: What about the “percent staining of G glycoprotein on CX3CR1-293 cells in the presence of peptide” value [1] of the same molecule?
Answer: Its value is 65%.

Question: What about the “Range of Inhibition (%) of G glycoprotein binding” value ([1]; inhibitor 1 μM, no heparin) of the same molecule?
Answer: The value was 16-22%.

Question: Which results are given for TCWAICKRIPNK [RT33]?
Answer: Range of Inhibition (%) of Fkn binding ([2]; inhibitor 1 μM): 18-27%; plaque inhibition (%) (RSV; 1 μM): 71%; plaque reduction by peptide alone (RSV; concentration not stated): 16%; plaque inhibition (%) (RSV; heparin 5 μg/ml + peptide 1 μM): 92%; Range of Inhibition (%) of G glycoprotein binding ([1]; heparin 5 μg/ml + peptide 1 μM): 85-94%; Range of Inhibition (%) of G glycoprotein binding ([1]; inhibitor 1 μM, no heparin): 35-42%

Question: Which results are given for VPCSICSNNPTC [RT32]?
Answer: Range of Inhibition (%) of Fkn binding ([2]; inhibitor 1 μM): 6-12%; plaque inhibition (%) (RSV; 1 μM): 2%; Range of Inhibition (%) of G glycoprotein binding ([1]; inhibitor 1 μM, no heparin): 8-14%

B1: G glycoprotein: purified G glycoprotein isolated from RSV/A2-infected Vero cells (protein)
chain: MSKNKDQRTAKTLERTWDTLNHLLFISSCLYKLNLKSVAQITLSILAMIISTSLIIAAIIFIASANHKVTPTTAIIQDATSQIKNTTPTYLTQNPQLGISPSNPSEITSQITTILASTTPGVKSTLQSTTVKTKNTTTTQTQPSKPTTKQRQNKPPSKPNNDFHFEVFNFVPCSICSNNPTCWAICKRIPNKKPGKKTTTKPTKKPTLKTTKKDPKPQTTKSKEVPTTKPTEEPTINTTKTNIITTLLTSNTTGNPELTSQMETFHSTSSEGNPSPSQVSTTSEYPSQPSSPPNTPRQ
Question: B1 was tested. Which “Range of Inhibition (%) of Fkn binding” value ([2]; inhibitor 100 pM) did it give?
Answer: Its value is 5-8%.

Question: And the “Range of Inhibition (%) of Fkn binding” value ([2]; inhibitor 10 nM)?
Answer: The value was 32-38%.

Question: And the “Range of Inhibition (%) of Fkn binding” value ([2]; inhibitor 1 μM)?
Answer: Its value is 50-58%.

Question: And the “plaque inhibition (%)” value (RSV; 1 nM)?
Answer: Its value is 0%.

Question: And the “plaque inhibition (%)” value (RSV; 10 nM)?
Answer: The value was 49%.

Question: What about the “plaque inhibition (%)” value (RSV; 100 nM) of the same molecule?
Answer: The value was 61%.

Question: What about the “plaque inhibition (%)” value (RSV; heparin 5 μg/ml + G glycoprotein 100 nM) of the same molecule?
Answer: Its value is 98%.
